Where two headings read alike, the source gives them in different places.
What was measured:
N2a GFP-LC3 cells = test: GFP-LC3 puncta formation in N2a cells constantly expressing GFP-LC3 (confocal); format: cell-based, mouse; conditions: for pro-autophagic activity (GFP-LC3 puncta): 50 μM, 12 hours
Procedure: Cell imaging and puncta counting. Cells were fixed in 3.7% paraformaldehyde (158127, Sigma) for 10 minutes and mounted with FluorSave reagent. Cell images were recorded using a fluorescence microscope or confocal microscope. GFP or RFP Puncta number were counted in cells as described previously. Briefly, the GFP-LC3 or RFP-LC3 puncta in each cell were manually counted, and at least 50 cells were randomly selected for counting in each group. The data presented were from one representative experiment of at least 3 independent experiments.
Further, a neuroblastoma cell line N2a constantly expressing GFP-LC3 (a standard autophagy marker protein) is established. The formation of GFP-LC3 puncta under Cory B treatment is observed under a confocal microscope. Data is presented as the mean±SEM of one representative experiment from three independent experiments. (*p<0.05, ***p<0.001, one-way ANOVA for multiple comparison and Tukey's test as post hoc test).
To confirm that enhancement of autophagy markers by Cory B is due to induction of autophagy rather than blockage of autophagosome maturation, N2a cells are treated with 25 μM Cory B or 30 μM lysosome inhibitor CQ together with Cory B for 12 hours. Cell lysates are subject to western blot analysis. Data are presented as the mean±SEM from 3 independent experiments (***p<0.001, one-way ANOVA for multiple comparison and Tukey's test as post hoc test). Both LC3-II levels and the number of GFP-LC3 puncta in the Cory B and CQ co-treatment group are much higher than in the CQ-alone treatment group (FIG. 2A-D). Meanwhile, Cory B induces GFP-LC3 puncta formation is abolished by treatment of 5 mM autophagy inhibitor 3-MA for 24 hours (FIG. 2C, D). Cells were fixed in 4% paraformaldehyde and analyzed under a confocal microscope. Data are presented as the mean±SEM of one representative experiment from three independent experiments. (***p<0.001, one-way ANOVA for multiple comparison and Tukey's test as post hoc test). […] Thus, Cory B is indeed an autophagy inducer in neuronal cells.
In order to observe the pro-autophagic activity of CB6 and CB8 intuitively, N2a cells constantly expressing GFP-LC3 are treated with 50 μM Cory B, CB6 and CB8 for 12 hours respectively. The cells are than fixed with 4% paraformaldehyde (Sigma, 158127) for 10 minutes, and then mounted with VECTASHIELD hardset anti-fade mounting medium. The mounted samples are then subjected to confocal microscopy analysis.
After designated treatments, N2a cells constantly expressing GFP-LC3 were fixed with 4% paraformaldehyde (Sigma, 158127) for 10 min, and then mounted with VECTASHIELD hardset antifade mounting medium. The mounted samples were then subjected to confocal microscopy analysis.

[1] = Pharmacokinetic study of Cory B, CB6 and CB8 in rats (plasma, LC/MS/MS, NCA); set-up: species or system Male Sprague-Dawley (SD) rats; conditions: rat, in vivo, 1 mg/kg; for AUC / Cmax / MRT / half-life: male, Sprague-Dawley
Procedure: Male Sprague-Dawley (SD) rats (weighting ˜200 g) used in the experiment are provided by Laboratory Animal Services Center of The Chinese University of Hong Kong (Hong Kong SAR, People's Republic of China). Cory B (n=3), CB6 (n=6) and CB8 (n=6). For the jugular vein cannulation surgery, the rats are anesthetized (intramuscular injection of a mixture of 80 mg/kg ketamine and 8 mg/kg xylazine) followed by inserting a polyethylene tube (0.5 mm ID, 1 mm OD, Portex Ltd., England) into the right jugular vein. The cannulated rats are allowed to recover overnight while fasting with free access to water. For intravenous (IV) administrations, Cory B, CB6 or CB8 (200 μg/mL, dissolved in saline containing 9.2% PEG400+0.5% DMSO, w/w) is given through the jugular vein catheter at 1 mg/kg. For intranasal (IN) administration, 10 μL of Cory B, CB6 or CB8 (10 mg/mL, dissolved with 40% PEG400, 10% DMSO in H2O, w/w) is given to each nostril of rats. At pre-determined time points post-dosing (5, 10, 20, 30, 60, 120, 240 and 360 min for IV and IN administration groups), approximately 200 μL blood is collected into a heparinized centrifuge tube containing 5 μM EDTA followed by centrifugation at 3000 rpm for 5 min to obtain the plasma. To 100 μL rat plasma sample, an aliquot of 100 μL internal standard (IS) and 100 μL of acetonitrile are added. The mixture is mixed for 1 min by vortex and then centrifuged for 10 min at 13,200 rpm. 200 μL of supernatant is transferred into centrifuge tubes and mixed with 200 μL of H2O containing 4% formic acid (FA). After another round of vortex and centrifugation, 10 μL of the supernatant is subjected to LC/MS/MS for quantification of Cory B, CB6 or CB8 with an established LC/MS/MS method. Pharmacokinetic parameters from non-compartmental analysis (NCA) are calculated using WinNonLin. The pharmacokinetic parameters and profiles of each analytes are shown as below.

| Compound | pro-autophagic activity (GFP-LC3 puncta) (N2a GFP-LC3 cells) | AUC ([1]; inhaled or intranasal) [ng·h/mL] | Cmax ([1]; inhaled or intranasal) [ng/mL] | MRT ([1]; inhaled or intranasal) [h] | half-life ([1]; inhaled or intranasal) [h] | AUC ([1]; iv) [ng·h/mL] | Cmax ([1]; iv) [ng/mL] | MRT ([1]; iv) [h] | half-life ([1]; iv) [h] | Tmax (time to reach Cmax) ([1]; inhaled or intranasal) [min] | Cmax and Area Under Curve (AUC) in comparison Cory B ([1]; iv) | other results |
| --- | --- | --- | --- | --- | --- | --- | --- | --- | --- | --- | --- | --- |
| CC[C@@H]1CN2CC[C@]3(C(=O)Nc4ccccc43)C2C[C@@H]1C(=COC)C(=O)OC (some centres unmarked) [Cory B, Corynoxine B] | – | – | – | – | – | – | – | – | – | – | – | GFP-LC3 puncta formation in presence of autophagy inhibitor 3-MA (N2a GFP-LC3 cells; 5 mM 3-MA, 24 hours): abolished; GFP-LC3 puncta formation (N2a GFP-LC3 cells; N2a GFP-LC3 cells, Cory B treatment): induces massive GFP-LC3 puncta formation; AUC ([1]; inhaled or intranasal, rats, intranasal, read-out: AUC (area under the curve) (converted)): 92.6 ng·h/mL; Cmax ([1]; inhaled or intranasal, rats, intranasal, read-out: Cmax (maximum plasma concentration)): 145 ± 62 ng/mL; MRT ([1]; inhaled or intranasal, rats, intranasal, read-out: MRT (mean residence time) (converted)): 2.22 h; half-life ([1]; inhaled or intranasal, rats, intranasal, read-out: t1/2 (plasma half-life)): 1.93 ± 0.233 h; AUC ([1]; rats, intravenous, read-out: AUC (area under the curve) (converted)): 63.6 ng·h/mL; Cmax ([1]; rats, intravenous, read-out: Cmax (maximum plasma concentration)): 66 ± 8 ng/mL; MRT ([1]; rats, intravenous, read-out: MRT (mean residence time) (converted)): 2.3 h; half-life ([1]; rats, intravenous, read-out: t1/2 (plasma half-life)): 2.13 ± 0.367 h |
| C=CCN1C(=O)[C@]2(CCN3C[C@@H](CC)[C@@H](/C(=C\OC)C(=O)OC)C[C@H]32)c2ccccc21 [CB8] | confirmed to be autophagy inducers | 124 | 129 ± 61 | 1.95 | 1.65 ± 0.217 | 102 | 143 ± 42 | 1.65 | 1.87 ± 0.433 | 5 ± 0 | greater | – |
| CCCN1C(=O)[C@]2(CCN3C[C@@H](CC)[C@@H](/C(=C\OC)C(=O)OC)C[C@H]32)c2ccccc21 [CB6] | confirmed to be autophagy inducers | 200 | 244 ± 33 | 1.83 | 1.93 ± 0.133 | 248 | 520 ± 177 | 1.58 | 2 ± 0.25 | 5 ± 0 | greater | – |
